Data taken from US20260021119A1, “TETRACYCLINE DERIVATIVES” (ICM (INSTITUT DU CERVEAU ET DE LA MOELLE ÉPINIÈRE), priority 2022, published 2026).
Values after ≈ are worked out from the molar mass of the structure shown. Read-outs that look alike come from different tables or passages of the source.

Columns and labels:
alpha-synuclein = alpha-synuclein (Homo sapiens, UniProt P37840); experiment: alpha-synuclein aggregation, thioflavin T (ThT) fluorescence; assay type: biochemical; conditions: 20 μM
Experimental: The antiaggregant effect of the compound of formula (Ia) according to the present invention on alpha-synuclein (αS) was evaluated in vitro by measuring the fluorescence intensity of the probe thioflavin T (ThT), a molecule that specifically binds to cross-β structures characteristic of amyloid-like aggregation. The compound of formula (Ia) was dissolved in dimethylsulfoxide to reach a concentration of […]. In this assay, 70 μM of alpha-synuclein was incubated with and without 10 μM, 20 μM and 50 μM of the compound of formula (Ia), under orbital agitation (600 rpm), at 37° C., for 5 days. After the incubation time, Tht was added to each sample and changes in the emission fluorescence spectra (λex=450 and λem=[…]) was monitored using a Horiba Fluoromax CP4 spectrofluorometer.

E. coli ATCC 25922 = experiment: MIC, broth dilution (Example 3); assay type: cell-based; conditions: Escherichia coli, ATCC25922; 18 h at 37° C., MH broth
Experimental: (§1) Bacterial strains used in this study were: S. aureus (ATCC25923), E. coli (ATCC25922), E. faecalis (ATCC29212) and P. aeruginosa (PA01). Strains were maintained at −80° C. in 15% (v/v) glycerol for cryoprotection. Bacteria were routinely grown in Mueller-Hinton (MH) broth at 37° C.
(§2) The susceptibility of bacterial strains to antibiotics and compounds was determined in microplates using the standard broth dilution method in accordance with the recommendations of the Comité de 1′Antibiogramme de la Société Française de Microbiologie (CA-SFM). (Members of the SFM Antibiogram Committee, R. Int. J. Antimicrob. Agents 2003, 21, 364). Briefly, the Minimal Inhibitory Concentrations (MICs) were determined with an inoculum of 10^5 CFU in 200 μL of MH broth containing two-fold serial dilutions of each drug. […] To determine all MICs, the measurements were independently repeated in triplicate.
(§3) The compound of formula (Ia) according to the invention was tested against clinical isolates Gram-bacteria (P. aeruginosa, E. coli) and Gram+ bacteria (S. aureus, E. faecalis). Minimum inhibitory concentrations (MIC) were tentatively determined and compared to known antibiotic tetracyclines (doxycycline, demeclocycline, chlortetracycline) and to the compound of formula (B) disclosed in Example 1 of the present application. The test was reproduced twice and the average MIC were calculated.

P. aeruginosa PA01 [1] = experiment: MIC, broth dilution (Example 3); assay type: cell-based; conditions: Pseudomonas aeruginosa, 18 h at 37° C., MH broth
Experimental: as §1, §2, §3

S. aureus ATCC 25923 [2] = experiment: MIC, broth dilution (Example 3); assay type: cell-based; conditions: Staphylococcus aureus, ATCC25923; 18 h at 37° C., MH broth
Experimental: as §1, §2, §3

[3] = test system: Gram+ and Gram- bacteria (S. aureus, E. coli, E. faecalis, P. aeruginosa); experiment: Antibiotic activity, summary over the bacterial strains (Examples 3 and 7); assay type: cell-based; set-up: key to Antibiotic activity: low: Weak antibiotic activity on only 1 of the 3 bacterial strains (i.e. S aureus); high: Strong antibiotic activity on all 3 bacterial strains; Significant antibiotic activity on two bacterial strains; conditions: summary over bacterial strains
Experimental: as §1, §2, §3
(§4) The properties of tetracycline derivatives, including the compound of formula (Ia) according to the present invention, were compared regarding the neuroprotection, anti-inflammatory effects, anti-aggregant activity, and antibiotic activity. The properties were evaluated as described herein above.
(§5) EC50s, IC50s determined graphically, *Rescue of dopamine neurons from spontaneous oxidative stress; ** TNF α release inhibition under LPS exposure, ^#Weak antibiotic activity on only 1 of the 3 bacterial strains (i.e. S aureus). ##Strong antibiotic activity on all 3 bacterial strains. ^###Significant antibiotic activity on two bacterial strains.

[4] = test system: dopaminergic neurons (TH+ neurons); experiment: Neuroprotection: rescue of dopamine neurons from spontaneous oxidative stress in primary cultures; assay type: cell-based; conditions: for EC50: Neuron, read-out: Neuroprotection (EC 50 μM)
Experimental: In primary cultures of dopaminergic neurons, TH+ neurons suffer from oxidative stress, leading to the death of the neurons after a few days. When cultured in the presence of a positive reference (apotransferrin), the dopaminergic neurons survive. The neuroprotective effects of 10 μM of doxycycline (DOX) and of 3 μM or 5 μM of the compound of formula (Ia) according to the present invention were evaluated, compared to the effect of 100 μg/mL of apotransferrin (APO).
as §4, §5

[5] = test system: microglia cells (TNF α release under LPS); experiment: Anti-inflammatory effect in microglia, TNF α release inhibition under LPS exposure; assay type: cell-based; conditions: TNF α release inhibition under LPS exposure, determined graphically; for IC50: Microglia, read-out: Anti inflammatory effects (IC 50 in μM)
Experimental: Microglia is in charge of the protection of the neurons. However, under stress conditions, microglia cells are responsible of inflammatory phenomena, leading eventually to the death of the neurons. The anti-inflammatory effects of 5 μM and 20 μM of compound of formula (B) presented in Example 1, of 5 μM and 20 μM of compound of formula (Ia) according to the present invention and of 50 μM of doxycycline (DOX) were evaluated, compared to the effect of 2.5 μM of dexamethasone (DEX). Microglia is in charge of the protection of the neurons. However, under stress conditions, microglia cells are responsible of inflammatory phenomena, leading eventually to the death of the neurons. The anti-inflammatory effects of 10 μM and 20 μM of compound of formula (C) (“10 μM (C)” and “20 μM (C)”) and of 10 μM and 20 μM of compound of formula (Ia) according to the present invention (“10 μM (Ia)” and “20 μM (Ia)”) were evaluated, compared to the effect of 2.5 μM of dexamethasone (“DEX”). The properties of tetracycline derivatives, including the compound of formula (Ia) according to the present invention, were compared regarding the neuroprotection, anti-inflammatory effects, anti-aggregant activity, and antibiotic activity. The properties were evaluated as described herein above. EC50s, IC50s determined graphically, *Rescue of dopamine neurons from spontaneous oxidative stress; ** TNF α release inhibition under LPS exposure, ^#Weak antibiotic activity on only 1 of the 3 bacterial strains (i.e. S aureus). ##Strong antibiotic activity on all 3 bacterial strains. ^###Significant antibiotic activity on two bacterial strains.

E. faecalis ATCC 29212 [6] = experiment: MIC, broth dilution (Example 3); assay type: cell-based; conditions: Enterococcus faecalis, ATCC29212; 18 h at 37° C., MH broth
Experimental: as §1, §2, §3

dopamine neurons = experiment: Neuroprotection in midbrain mouse cultures, survival of TH+ dopamine neurons; assay type: cell-based; conditions: 10 μM, div14
Experimental: (§6) Midbrain mouse cultures were subjected to a maturation step until day in vitro (div) 7, and then gradually exposed to phenol red formulated DMEM/Nutrient mixture F12 Ham supplemented with 20 μg/mL of insulin and 2 μM of the NMDA receptor blocker MK-801. Under these conditions, which favor low-level, sustained oxidative insults, and lead ultimately to dopamine cell death, treatments with the compound of formula (Ib) according to the invention (at a concentration ranging from 0.1 to 5 μM) were performed or not, as well as treatments with the reference tetracycline antibiotic doxycycline (DOX; 10 μM) and the glycoprotein apotransferrin (APO; 100 μg/mL), the latter being used as reference neuroprotectant. At div14, cultures were fixed, and then processed for tyrosine hydroxylase (TH) immunocytochemistry to estimate the survival of dopamine neurons.
as §6, with “(Ic)” for “(Ib)”, “with” for “with the reference tetracycline antibiotic doxycycline (DOX; 10 μM) and”

[7] = Brain penetration after single subcutaneous injection; assay type: in vivo; conditions: mouse, brain and serum, sc; 40 mg/kg single subcutaneous injection, Swiss mice, 30 min to 24 h, n=3; read-out: brain-to-plasma ratio calculated from the area under the concentration time curves
Experimental: Adult Swiss mice received a single subcutaneous injection of 40 mg/kg of the compound of formula (Ia) according to the present invention, the compound of formula (C), or doxycycline diluted in saline with 5% DMSO and 5% Tween 80 (doxycycline was used as a reference tetracycline). The mice were sacrificed 30 min, 1 h, 8 h, and 24 h after treatment. After sacrifice, brain and serum samples were collected and processed at each time point for tetracycline dosage, using an UHPLC system coupled with a triple quadrupole mass spectrometer LCMS-8030 (Shimadzu Corporation, Kyoto, Japan).

E. coli ATCC 28922 = experiment: MIC, standardized protocols (Example 9); assay type: cell-based; conditions: Escherichia coli, ATCC28922
Source text: (§7) Bacterial strains used in this study were: S. aureus (ATCC25923), E. coli (ATCC28922), E. faecalis (ATCC29212) and P. aeruginosa (PA01). The minimum inhibitory concentrations (MICs) were estimated using standardized protocols (Mawabo et al, J. Infect. Public Health 2015).

E. faecalis ATCC 29212 [8] = experiment: MIC, standardized protocols (Example 9); assay type: cell-based; conditions: Enterococcus faecalis, ATCC29212
Source text: as §7

P. aeruginosa PA01 [9] = experiment: MIC, standardized protocols (Example 9); assay type: cell-based; conditions: Pseudomonas aeruginosa
Source text: as §7

S. aureus ATCC 25923 [10] = experiment: MIC, standardized protocols (Example 9); assay type: cell-based; conditions: Staphylococcus aureus, ATCC25923
Source text: as §7

4 test bacterial strains = experiment: Antimicrobial effects, summary over the 4 test bacterial strains (Example 9); assay type: cell-based
Source text: as §7

[11] = rescue of dopamine neurons from spontaneous oxidative stress, determined graphically

Compound	Anti aggregant activity at 20 μM (alpha-synuclein)	MIC (E. coli ATCC 25922)	MIC (P. aeruginosa PA01 [1])	MIC (S. aureus ATCC 25923 [2])	Antibiotic activity [3]	Neuroprotection (EC 50 μM) [4, 11]	Anti inflammatory effects (IC 50 in μM) [5]	IC50 [5]	MIC (E. faecalis ATCC 29212 [6])	also measured
C[C@H]1c2cccc(O)c2C(=O)C2=C(O)[C@]3(O)C(=O)C(C(N)=O)=C(O)C[C@@H]3[C@@H](O)[C@@H]21 [Compound of formula (B)]	yes	200 µM	> 2000 µM	25 µM	low	no	no	–	–	–
CC1c2ccc(-c3ccccc3)c(O)c2C(=O)C2=C(O)C3(O)C(=O)C(C(N)=O)=C(O)CC3[C@@H](O)C21 (stereo partly drawn) [Compound of formula (G)]	yes	–	–	–	low	no	–	8 µM	–	–
CN(C)[C@@H]1C(O)=C(C(N)=O)C(=O)[C@@]2(O)C(O)=C3C(=O)c4c(O)ccc(Cl)c4[C@@](C)(O)[C@H]3C[C@@H]12 [Chlortetracycline]	yes	6.25 µM (≈ 2.99 µg/mL)	32 µM (≈ 15.3 µg/mL)	1.6 µM (≈ 0.766 µg/mL)	high	no	–	1 µM	1.6 µM (≈ 0.766 µg/mL)	–
CN(C)[C@@H]1C(O)=C(C(N)=O)C(=O)[C@@]2(O)C(O)=C3C(=O)c4c(O)ccc(Cl)c4[C@@H](O)C3CC12 (stereo partly drawn) [Compound of formula (D)]	yes	–	–	–	high^##	–	no	–	–	EC50 [4, 11]: 1.84 µM
C[C@H]1c2cccc(O)c2C(=O)C2=C(O)[C@]3(O)C(=O)C(C(N)=O)=C(O)[C@@H](N(C)C)[C@@H]3[C@@H](O)[C@@H]21 [Doxycycline]	yes	3.12 µM (≈ 1.39 µg/mL)	64 µM (≈ 28.4 µg/mL)	0.4 µM (≈ 0.178 µg/mL)	high	–	–	45 µM	0.4 µM (≈ 0.178 µg/mL)	neuroprotective effect ([4]; 10 μM, compared to apotransferrin 100 μg/mL): shows a neuroprotective effect; EC50 [4, 11]: 5.2 µM; neuroprotective effect (survival of dopamine neurons) (dopamine neurons): shows a neuroprotective effect; Kp [7]: 0.11 ± 0.03
CN(C)[C@@H]1C(O)=C(C(N)=O)C(=O)[C@@]2(O)C(O)=C3C(=O)c4c(O)cccc4[C@@](C)(O)[C@H]3[C@H](O)[C@@H]12 [Oxytetracycline]	–	–	–	–	–	–	–	–	–	MIC (E. coli ATCC 28922): 3.12 µM (≈ 1.44 µg/mL); MIC (E. faecalis ATCC 29212 [8]): 3.12 µM (≈ 1.44 µg/mL); MIC (P. aeruginosa PA01 [9]): 50 µM (≈ 23 µg/mL); MIC (S. aureus ATCC 25923 [10]): 3.12 µM (≈ 1.44 µg/mL); antimicrobial effects against the 4 test bacterial strains (4 test bacterial strains): exerts antimicrobial effects against 3 of the 4 test bacterial strains
CC1(O)c2c(Cl)ccc(O)c2C(=O)C2=C(O)C3C(=O)C(C(N)=O)=C(O)CC3CC21 (stereo not drawn) [Compound of formula (E)]	yes	–	–	–	low	–	no	–	–	EC50 [4]: 2.01 µM
NC(=O)C1=C(O)C[C@@H]2C[C@@H]3Cc4cccc(O)c4C(=O)C3=C(O)[C@]2(O)C1=O [Compound of formula (F), incyclinide]	yes	–	–	–	Significant^###	no	–	8 µM	–	–
CN(C)[C@@H]1C(O)=C(C(N)=O)C(=O)[C@@]2(O)C(O)=C3C(=O)c4c(O)ccc(Cl)c4[C@@H](O)[C@H]3C[C@@H]12 [Demeclocycline]	–	3.12 µM (≈ 1.45 µg/mL)	32 µM (≈ 14.9 µg/mL)	0.4 µM (≈ 0.186 µg/mL)	–	–	–	–	0.4 µM (≈ 0.186 µg/mL)	–
